Reference: patent US12458614B2, “Therapeutic agents for improved mobility and cognitive function and for treating neurodegenerative diseases and lysosomal storage disorders” (priority 2017, dated 2025)
“Also recorded” adds a separate entry of the source.

Tests used:
[1] = system: patients with amyotrophic lateral sclerosis (ALS); experiment: Case studies, amyotrophic lateral sclerosis; format: in vivo, human; settings: ALS Patient 1
Source text: The results were documented by video.

[2] = system: patients with downbeat nystagmus; experiment: Case studies, downbeat nystagmus; format: in vivo, human; settings: downbeat nystagmus Patients 1 (10 mg twice daily, four weeks) and 2
[3] = system: patient with frontotemporal dementia with parkinsonism; experiment: Case study, frontotemporal dementia with parkinsonism; format: in vivo, human; settings: treatment with L-Dopa and Ropinirol
Source text: After approximately one month of acetyl-leucine treatment, medication was stopped and the patient was re-examined 13 days later.

[4] = system: patients with multiple system atrophy Parkinson type (MSA-P); experiment: Case studies, multiple system atrophy Parkinson type; format: in vivo, human; settings: MSA-P Patient 3
Source text: Medication was stopped. […] The patient evaluated after one month on acetyl-DL-leucine. […] Episodes of mental confusion completely disappeared. The patient's cognitive structure seemed much clearer and straighter. […] The patient's spouse supported continuing the medication.

[5] = system: person with balance disorder/senile gait disorder; experiment: Case study Example 23; format: in vivo, human; settings: treatment with L-Dopa
[6] = system: patients with multiple system atrophy Parkinson type (MSA-P); experiment: Case studies, multiple system atrophy Parkinson type; format: in vivo, human; settings: MSA-P Patient 1, 100/25 mg 3× daily
[7] = system: patient with progressive gait disorder; experiment: Case study Example 26, quantitative gait analysis; format: in vivo, human; settings: treatment with L-Dopa
[8] = system: patient with Lewy Body dementia; experiment: Case study, Lewy Body dementia; format: in vivo, human; settings: Levodopa 100 mg 4× daily and Quetiapin 25 mg at night
Method: The patient started taking acetyl-leucine (3 g/day for one week; 5 g/day thereafter) and was evaluated after four weeks. […] Medication was reduced to 3 g/day, and the patient was instructed to stop medication about two weeks later.

[9] = system: patient with corticobasal syndrome; experiment: Case study, corticobasal syndrome; format: in vivo, human; settings: treatment with L-Dopa
Method: Gait analysis was performed before treatment commenced.

[10] = system: patients with progressive supranuclear palsy; experiment: Case studies, progressive supranuclear palsy; format: in vivo, human; settings: individual PSP patients 1 to 4
Method: After 27 days of acetyl-leucine treatment, medication was stopped and the patient was re-examined 60 days later. […] Gait analysis was performed before treatment commenced. After 17 days of treatment, medication was stopped and the patient was re-examined 4 days later. […] Gait analysis was performed before treatment commenced. After three weeks of treatment, medication was stopped and the patient was re-examined.

[11] = system: rat model of an acute unilateral labyrinthectomy; settings: acute unilateral labyrinthectomy (Gunther 2015); cited from earlier work

Nc1nc2ccc(OC(F)(F)F)cc2s1 [Riluzol]
Clinical symptomatology under prior medication [1]: remained unchanged

Nc1ccncc1 [4-aminopyridine]
Benefit of prior medication [2]: did not give rise to any benefit
Benefit of prior medication ([2]; listed as Fampyra®): did not benefit

N[C@@H](Cc1ccc(O)c(O)c1)C(=O)O [L-Dopa]
Response to prior medication [3]: little improvement
Tolerability of Levodopa therapy [4]: suspended due to side effects
Response to prior medication [5]: no improvement
Levodopa response [6]: discreet Levodopa response
Response to prior medication [7]: No improvement
Response to prior medication [8]: improved the symptomatology
Response to prior medication [9]: no improvement
Levodopa response [10]: little improvement
Levodopa response ([10]; listed as levodopa): no levodopa response; also recorded: slight levodopa response

CC(=O)N[C@@H](CC(C)C)C(=O)O [acetyl-L-leucine]
postural compensation [11]: significant effect

OCCOCCN1CCN(C2=Nc3ccccc3Sc3ccccc32)CC1 [Quetiapin]
Response to prior medication [8]: improved the symptomatology

CCCN(CCC)CCc1cccc2c1CC(=O)N2 [Ropinirol]
Response to prior medication [3]: little improvement
